Data reported in patent US11851428B2, “Activator of TREK (TWIK RElated K+channels) channels” (ONO PHARMACEUTICAL CO., LTD., priority 2016, dated 2023).
“Also recorded” adds a separate entry of the source. Like-named read-outs stand apart in the source and are kept apart here.

What was measured:
human TREK-1 = target: T1, human TREK-1 (Homo sapiens, UniProt O95069); assay: thallium flux assay (TREK1 activation normalized to BL-1249); assay type: cell-based
T1 construct: expressed in transfected cells
T1 sequence (O95069 1-426): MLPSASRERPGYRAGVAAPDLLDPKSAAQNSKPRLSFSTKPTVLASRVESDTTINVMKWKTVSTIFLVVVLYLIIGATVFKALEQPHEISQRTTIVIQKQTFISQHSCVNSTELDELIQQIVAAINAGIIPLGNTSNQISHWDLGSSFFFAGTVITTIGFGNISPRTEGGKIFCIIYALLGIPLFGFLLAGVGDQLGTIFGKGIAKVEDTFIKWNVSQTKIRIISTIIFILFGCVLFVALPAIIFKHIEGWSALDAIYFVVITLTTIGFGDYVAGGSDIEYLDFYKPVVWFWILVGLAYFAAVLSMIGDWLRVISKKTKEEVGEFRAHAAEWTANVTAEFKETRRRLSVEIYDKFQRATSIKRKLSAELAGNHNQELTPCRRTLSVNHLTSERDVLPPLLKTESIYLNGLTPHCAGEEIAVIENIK
Procedure: The term “thallium flux assay” herein refers to a fluorescence-based assay used to monitor the activity of TREK channels. Thallium is a congener of potassium that readily fluxes through the pore of TREK channels. Thallium flux is measured using a commercially available, thallium-sensitive fluorescent dye called Thallos. The detail method is described below.
Method 1 (Thallium Flux Assay);
CHO-K1 cells stably expressing human TREK-1 or HEK293 cells stably expressing human TREK-2 are plated in 384-well plates, cultured overnight, loaded with Thallos dye the following day, treated with test compounds for 10 min, and then treated with thallium stimulus buffer to initiate thallium flux. The change in fluorescence at 25 seconds after thallium addition is normalized to baseline fluorescence (fluorescent intensity at 25 sec after Tl^+ addition)/(average of fluorescent intensity at pre-read).

ICR mice = assay: acetic acid writhing assay; assay type: in vivo, mouse; details: for number of writhes induced by acetic acid: ICR mice, 2 h before acetic acid i.p., counted for 30 min, vs vehicle; for number of writhes induced by acetic acid (FIGURE legend): mouse, p.o., dose not stated in the legend, *p<0.05 vs vehicle
Procedure: d. Analgesic Effect in Acetic Acid Writhing Assay
ICR mice were pretreated with vehicle (0.5 w/v % methyl cellulose, p.o.) or Example 1-25 compounds (0.3, 1, 3 mg/kg, p.o.) or Example 2 compounds (1, 10, 300 mg/kg, p.o.) or indomethacin (10 mg/kg, p.o.). Compounds were suspended in 0.5 w/v % methyl cellulose and indomethacin was dissolved in 0.7% sodium bicarbonate. All drugs were administered in a volume of 10 mL/kg. Two hours after administration of the disclosed compounds and vehicle, or one hour after administration of indomethacin, the animals were injected with acetic acid (0.7% v/v in saline, 10 mL/kg, i.p.). The number of writhes (characterized by contraction of the abdominal musculature and extension of the limbs) was then counted for 30 min. Analgesic effect was evaluated by comparing the number of writhes between the rest compounds group and the vehicle group.

[1] = concentration of Example compound 10 μM, normalized to 10 μM BL-1249, CHO-K1 cells stably expressing human TREK-1, read-out: TREK1 activation RBL-1249 (%)

O=C(NCc1ccc(OC(F)(F)F)cc1F)c1ccc2ncnn2c1 [Example 1-25, N-[2-fluoro-4-(trifluoromethoxy)benzyl][1,2,4]triazolo[1,5-a]pyridine-6-carboxamide]
activation at 10 µM (human TREK-1; [1]): 82% | number of writhes induced by acetic acid (ICR mice; 3 mg/kg p.o., 3 mg/kg): significantly decreased the number of writhes; also recorded: the same degree as indomethacin 10 mg/kg | number of writhes induced by acetic acid (FIGURE legend) (ICR mice): inhibit the number of writhes induced by acetic acid

Cc1cc(OC(F)(F)F)ccc1CNC(=O)c1ccc(-n2cncn2)nc1 [Example 2, N-[2-Methyl-4-(trifluoromethoxy)benzyl]-6-(1H-1,2,4-triazol-1-yl)nicotinamide]
activation at 30 µM (human TREK-1; concentration of Example compound 30 μM, normalized to 10 μM BL-1249, CHO-K1 cells stably expressing human TREK-1, read-out: TREK1 activation RBL-1249 (%)): 20% | number of writhes induced by acetic acid (ICR mice; 300 mg/kg p.o., 300 mg/kg): significantly decreased the number of writhes; also recorded: the same degree as indomethacin 10 mg/kg | number of writhes induced by acetic acid (FIGURE legend) (ICR mice): inhibit the number of writhes induced by acetic acid

Nc1c(C(=O)NCc2ccc(OC(F)(F)F)cc2Cl)cnc2ccnn12 [Example 9-14, 7-amino-N-[2-chloro-4-(trifluoromethoxy)benzyl]pyrazolo[1,5-a]pyrimidine-6-carboxamide]
activation at 10 µM (human TREK-1; [1]): 79%

O=C(NCc1ccc(OC(F)(F)F)cc1Cl)c1ccc(-c2ncc[nH]2)cc1 [Example 9-15, N-[2-chloro-4-(trifluoromethoxy)benzyl]-4-(1H-imidazol-2-yl)benzamide]
activation at 10 µM (human TREK-1; [1]): 59%

O=C(NCc1ccc(OC(F)(F)F)cc1Cl)c1ccc2nnnn2c1 [Example 9-16, N-[2-chloro-4-(trifluoromethoxy)benzyl]tetrazolo[1,5-a]pyridine-6-carboxamide]
activation at 10 µM (human TREK-1; [1]): 95%

O=C(NCc1ccc(OC(F)(F)F)cc1Cl)c1ccn2nnnc2c1 [Example 9-17]
TREK1 activation RBL-1249 (%) (human TREK-1; concentration of Example compound 10 μM, normalized to 10 μM BL-1249, CHO-K1 cells stably expressing human TREK-1): 78%

Cc1cc2ncc(C(=O)NCc3ccc(OC(F)(F)F)cc3Cl)cn2n1 [Example 9-19, N-[2-chloro-4-(trifluoromethoxy)benzyl]-2-methylpyrazolo[1,5-a]pyrimidine-6-carboxamide]
activation at 10 µM (human TREK-1; [1]): 68%

CS(=O)(=O)Nc1ccc(C(=O)NCc2ccc(Cl)cc2Cl)cc1 [N-(2,4-dichlorobenzyl)-4-[(methylsulfonyl)amino]benzamide]
activation at 30 µM (human TREK-1; CHO-K1, read-out: TREK1 activation RBL-1249 (%)): 54%
